Assay results published in patent publication US20190000790A1, “PPAR-GAMMA ACTIVATORS AND THEIR THE[…]” (THERIAC B[…]., priority 2015, published 2019).

What was measured:
[1] = tested on: human PPARγ; assay: Reporter gene bioassay of PPAR transcriptional activity (Gal4-hPPARγ / UAStkLuc luciferase in 293 cells); format: cell-based; settings: each compound alone, 16 h, FIGS. 1A and B
Protocol: FIG. 1A, 1B illustrate a transcriptional activation of PPARγ by BNZ and PAA. Luciferase assay was performed in 293 cells transfected with Gal4-hPPARγ and UAStkLuc reporter construct and treated for 16 h with respective compounds. Data are expressed as fold change ±SEM compared to untreated cells set at 1.0.*, P<0.05; **, P<0.001.
FIG. 1C illustrates the additive effect of SB and PAA on transcriptional activity of PPARγ. Luciferase assay was performed in 293 cells transfected with Gal4-hPPARγ and UAStkLuc reporter construct and treated 10 mM of each compound for 16 h. Data are expressed as fold change ±SEM compared to untreated cells set at 1.0.*, P<0.001.
Human embryonic kidney 293 cells were seeded in DMEM supplemented with 5% charcoal dextran-treated FBS and transfected with Gal4 DBD fusion of PPAR isoforms and UAStkLuc reporter as described (12). Cells were then treated for 16 hrs and harvested for luciferase activity. Luciferase values were normalized for transfection efficiency to β-galactosidase activity and expressed as relative fold response compared to untreated cells. Data are derived from at least four independent experiments performed in triplicates. […]

[2] = tested on: CD4+ T cells; assay: Treatment of CD4+ T cells from healthy volunteers and Systemic Lupus Erythematosus patients; format: cell-based, human; settings: preliminary data, FIG. 6; CD4+ T cells stimulated with α-CD3/CD28 beads
From the text: FIG. 6 illustrates BZN+PAA (HIP-002) treatment of T cells derived from healthy volunteer (HV) and Systemic Lupus Erythematous (SLE) patients.
Next, we examined if BZN+PAA can improve immune function of T lymphocytes in Systemic Lupus Erythematosus (SLE). […] Dilutions effects of the BZN+PAA drug (HIP-002) are shown. (FIG. 6A). CD4+ T cells were stimulated with α-CD3/CD28 beads for 4 (red) or 5 (black) days and cytotoxicity determined by Live/Dead staining. (FIG. 6B) CD4+ T cells were stimulated as in (FIG. 6A) for 5 days, and the surface expression of CD154 and CD25 measured by FACS analysis. (FIG. 6C) CD4+ T cells were stimulated as in (FIG. 6A), and proliferation measured by dilution of the CellTrace Violet dye. White bars: HV; n=2-3. Gray bars: SLE patients; n=3-4. * p<0.05, ** p<0.01, *** p<0.0001.

SMILES: O=C([O-])c1ccccc1.[Na+] [BNZ, benzoate]
- PPARγ activity (transcriptional activation, luciferase) [1]: significantly potent in increasing PPARγ activity
- effect on growth and survival of T lymphocytes [2]: beneficial effect on the growth and survival of these cells
